Assay results published in ChEMBL document CHEMBL4219204, “Structure-based design and discovery of potent and selective KDM5 inhibitors” (Bioorg Med Chem Lett, 2018).

Tests used:
[1] = molecular target: T1, Lysine-specific demethylase 4C (Homo sapiens, UniProt Q9H3R0); assay: Inhibition of KDM4C (unknown origin) preincubated with enzyme
T1 sequence (Q9H3R0 whole entry): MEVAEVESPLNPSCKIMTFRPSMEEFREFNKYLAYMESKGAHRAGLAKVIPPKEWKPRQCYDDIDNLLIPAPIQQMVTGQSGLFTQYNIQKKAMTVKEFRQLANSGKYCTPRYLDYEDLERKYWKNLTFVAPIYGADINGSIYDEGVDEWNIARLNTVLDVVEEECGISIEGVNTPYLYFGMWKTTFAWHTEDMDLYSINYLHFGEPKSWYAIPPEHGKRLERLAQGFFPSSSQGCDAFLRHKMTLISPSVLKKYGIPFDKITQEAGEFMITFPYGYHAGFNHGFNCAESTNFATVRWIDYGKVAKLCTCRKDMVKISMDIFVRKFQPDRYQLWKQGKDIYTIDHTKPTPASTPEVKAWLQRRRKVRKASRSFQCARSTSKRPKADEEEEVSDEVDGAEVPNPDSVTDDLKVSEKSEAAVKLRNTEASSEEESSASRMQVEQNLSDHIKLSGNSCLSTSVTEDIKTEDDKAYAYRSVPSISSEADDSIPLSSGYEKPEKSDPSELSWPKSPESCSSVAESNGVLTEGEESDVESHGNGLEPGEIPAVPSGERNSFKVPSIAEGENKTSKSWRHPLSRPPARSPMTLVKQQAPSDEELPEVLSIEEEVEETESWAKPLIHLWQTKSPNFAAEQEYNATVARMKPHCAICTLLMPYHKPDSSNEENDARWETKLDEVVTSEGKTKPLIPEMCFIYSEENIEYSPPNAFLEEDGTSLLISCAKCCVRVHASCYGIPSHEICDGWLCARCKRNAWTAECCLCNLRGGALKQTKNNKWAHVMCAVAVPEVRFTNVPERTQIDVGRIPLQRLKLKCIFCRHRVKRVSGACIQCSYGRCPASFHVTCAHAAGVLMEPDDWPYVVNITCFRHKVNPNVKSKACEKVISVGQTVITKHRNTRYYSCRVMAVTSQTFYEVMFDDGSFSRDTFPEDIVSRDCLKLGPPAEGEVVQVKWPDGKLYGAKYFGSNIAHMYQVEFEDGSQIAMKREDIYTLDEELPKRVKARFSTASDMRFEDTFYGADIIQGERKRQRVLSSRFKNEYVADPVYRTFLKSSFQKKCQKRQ

[2] = molecular target: T2, Lysine-specific demethylase 4B (Homo sapiens, UniProt O94953); assay: Inhibition of KDM4B (unknown origin)
T2 sequence (O94953 whole entry): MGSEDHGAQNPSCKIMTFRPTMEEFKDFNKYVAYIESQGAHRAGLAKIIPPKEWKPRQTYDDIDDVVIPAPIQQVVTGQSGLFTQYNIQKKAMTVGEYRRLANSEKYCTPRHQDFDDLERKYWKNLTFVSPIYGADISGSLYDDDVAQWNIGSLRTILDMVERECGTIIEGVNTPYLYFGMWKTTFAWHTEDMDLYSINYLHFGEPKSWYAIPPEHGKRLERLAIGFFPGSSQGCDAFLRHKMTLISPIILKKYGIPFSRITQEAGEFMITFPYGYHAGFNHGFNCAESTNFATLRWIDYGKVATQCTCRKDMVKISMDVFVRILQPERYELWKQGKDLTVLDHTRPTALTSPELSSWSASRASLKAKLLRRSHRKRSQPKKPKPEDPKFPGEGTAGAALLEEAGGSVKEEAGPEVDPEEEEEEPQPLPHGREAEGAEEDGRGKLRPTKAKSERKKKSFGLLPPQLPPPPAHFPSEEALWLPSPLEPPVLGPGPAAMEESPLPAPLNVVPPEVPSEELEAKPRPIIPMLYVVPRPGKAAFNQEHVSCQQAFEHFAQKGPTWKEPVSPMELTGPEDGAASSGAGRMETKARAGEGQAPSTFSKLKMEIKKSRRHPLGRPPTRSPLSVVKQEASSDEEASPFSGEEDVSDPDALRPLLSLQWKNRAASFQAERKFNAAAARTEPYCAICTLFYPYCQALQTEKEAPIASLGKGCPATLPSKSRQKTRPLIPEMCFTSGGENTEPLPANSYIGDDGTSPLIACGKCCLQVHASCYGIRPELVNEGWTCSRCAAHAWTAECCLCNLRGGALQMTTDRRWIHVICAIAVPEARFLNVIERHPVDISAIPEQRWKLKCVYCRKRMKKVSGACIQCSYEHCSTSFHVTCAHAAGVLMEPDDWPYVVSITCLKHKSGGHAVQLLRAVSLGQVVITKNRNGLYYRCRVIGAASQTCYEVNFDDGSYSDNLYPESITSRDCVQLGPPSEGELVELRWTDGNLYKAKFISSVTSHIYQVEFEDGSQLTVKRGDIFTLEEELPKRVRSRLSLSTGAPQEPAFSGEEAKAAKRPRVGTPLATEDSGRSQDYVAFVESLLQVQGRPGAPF

Mus musculus = assay: In vivo inhibition of KDM5 in nude mouse xenografted with human MCF7 cells assessed as increase in H3K4me3 level in tumor at 75 mg/kg, po qd for 5 days measured at 0.5 hrs post last dose by Western blot analysis relative to control; type: functional

IC50 [1]: 35 to 41 nM
IC50 [2]: 170 nM
SMILES: Cc1cc(Cl)ccc1COc1ccnn1-c1cc(C(=O)O)ccn1
fold change (FC) (Mus musculus): >2
